Calls of active or inactive are those of the source.
Columns and labels:
[1] = test system: BJ; experiment: cells; assay type: functional, cell-based; details: Homo sapiens
[2] = reduction of Shn3 3'UTR-driven luciferase in osteoblasts – cell-based, Clone20 osteoblasts, firefly luciferase, cherry-picked, dose response (AID 624132); assay type: functional;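 further: firefly luciferase luminescence from reporter carrying the Shn3 3'UTR in osteoblasts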
[3] = biological target: Sphingosine 1-phosphate receptor 4 (Homo sapiens, UniProt O95977); experiment: Fluorescence dose response cell-based high throughput screening assay for antagonists of the Sphingosine 1-Phosphate Receptor 4 (S1P4). [Related pubchem assays: 1524 (Confirmation in triplicates.), 1510 (Primary screen.)]; assay type: functional
[4] = biological target: T1, Caspase-3 (Homo sapiens, UniProt P42574); experiment: SAR Analysis of small molecule inhibitors of Sentrin-specific proteases (SENPs) using a Caspase-3 Selectivity assay. [Related pubchem assays (depositor defined):AID2540, AID2599, AID434973, AID489001]; assay type: functional
T1 sequence (P42574 whole entry): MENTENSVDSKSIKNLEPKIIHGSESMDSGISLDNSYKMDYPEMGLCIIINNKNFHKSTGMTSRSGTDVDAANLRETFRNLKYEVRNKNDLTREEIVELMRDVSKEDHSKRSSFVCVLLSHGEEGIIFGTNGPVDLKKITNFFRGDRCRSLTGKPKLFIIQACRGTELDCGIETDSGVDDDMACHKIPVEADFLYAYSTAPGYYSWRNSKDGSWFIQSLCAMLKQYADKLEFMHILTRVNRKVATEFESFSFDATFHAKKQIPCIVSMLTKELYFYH

[5] = biological target: T2, Sentrin-specific protease 8 (Homo sapiens, UniProt Q96LD8); experiment: inhibition of human SENP8 cleavage activity – biochemical, luminescence, SAR follow-up (AID 504501); assay type: functional
T2 sequence (Q96LD8 whole entry): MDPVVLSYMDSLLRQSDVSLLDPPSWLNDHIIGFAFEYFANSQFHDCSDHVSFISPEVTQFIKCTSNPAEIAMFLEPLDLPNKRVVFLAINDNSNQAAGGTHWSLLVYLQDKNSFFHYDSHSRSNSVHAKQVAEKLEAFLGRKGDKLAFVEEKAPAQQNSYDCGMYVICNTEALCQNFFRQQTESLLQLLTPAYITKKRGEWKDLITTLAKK

[6] = biological target: T3, Sentrin-specific protease 6 (Homo sapiens, UniProt Q9GZR1); experiment: SAR Analysis of small molecule inhibitors of Sentrin-specific protease 6 (SENP6) using a Luminescent assay. [Related pubchem assays (depositor defined):AID2582, AID2599]; assay type: functional
T3 sequence (Q9GZR1 whole entry): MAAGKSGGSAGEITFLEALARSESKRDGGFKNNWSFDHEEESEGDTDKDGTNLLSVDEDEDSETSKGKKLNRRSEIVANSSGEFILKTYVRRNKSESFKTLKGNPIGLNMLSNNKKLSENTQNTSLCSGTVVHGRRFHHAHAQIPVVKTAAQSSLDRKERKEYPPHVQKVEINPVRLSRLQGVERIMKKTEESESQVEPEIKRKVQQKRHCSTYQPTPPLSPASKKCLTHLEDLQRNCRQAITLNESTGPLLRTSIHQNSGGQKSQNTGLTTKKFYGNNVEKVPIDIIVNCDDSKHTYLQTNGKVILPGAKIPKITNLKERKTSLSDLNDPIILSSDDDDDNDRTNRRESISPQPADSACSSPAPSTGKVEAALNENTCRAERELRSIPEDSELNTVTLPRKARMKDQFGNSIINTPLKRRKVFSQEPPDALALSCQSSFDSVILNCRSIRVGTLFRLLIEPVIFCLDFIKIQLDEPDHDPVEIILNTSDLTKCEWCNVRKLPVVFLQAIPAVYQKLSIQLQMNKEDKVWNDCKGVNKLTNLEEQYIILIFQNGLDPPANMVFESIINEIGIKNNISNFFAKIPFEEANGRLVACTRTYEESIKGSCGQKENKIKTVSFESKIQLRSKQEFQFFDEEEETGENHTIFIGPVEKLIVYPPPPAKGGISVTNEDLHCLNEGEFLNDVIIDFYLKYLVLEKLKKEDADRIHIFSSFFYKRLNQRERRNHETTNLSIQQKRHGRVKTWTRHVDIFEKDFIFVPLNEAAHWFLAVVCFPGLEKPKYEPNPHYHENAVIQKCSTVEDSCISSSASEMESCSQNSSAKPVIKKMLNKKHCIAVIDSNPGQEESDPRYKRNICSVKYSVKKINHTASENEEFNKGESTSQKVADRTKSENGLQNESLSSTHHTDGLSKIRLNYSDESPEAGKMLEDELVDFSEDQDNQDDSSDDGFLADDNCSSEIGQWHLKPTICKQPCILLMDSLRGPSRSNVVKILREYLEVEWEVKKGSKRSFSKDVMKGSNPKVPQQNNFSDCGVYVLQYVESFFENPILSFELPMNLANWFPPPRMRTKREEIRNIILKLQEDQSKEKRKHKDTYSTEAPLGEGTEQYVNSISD

[7] = biological target: T4, Type-1 angiotensin II receptor (Homo sapiens, UniProt P30556); experiment: antagonism of angiotensin II type 1 receptor – cell-based, uHTS hits, selectivity assay for APJ receptor antagonist project, dose response (AID 463214); assay type: functional;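 further: antagonist potency against angiotensin II stimulated AT1 response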
T4 sequence (P30556 whole entry): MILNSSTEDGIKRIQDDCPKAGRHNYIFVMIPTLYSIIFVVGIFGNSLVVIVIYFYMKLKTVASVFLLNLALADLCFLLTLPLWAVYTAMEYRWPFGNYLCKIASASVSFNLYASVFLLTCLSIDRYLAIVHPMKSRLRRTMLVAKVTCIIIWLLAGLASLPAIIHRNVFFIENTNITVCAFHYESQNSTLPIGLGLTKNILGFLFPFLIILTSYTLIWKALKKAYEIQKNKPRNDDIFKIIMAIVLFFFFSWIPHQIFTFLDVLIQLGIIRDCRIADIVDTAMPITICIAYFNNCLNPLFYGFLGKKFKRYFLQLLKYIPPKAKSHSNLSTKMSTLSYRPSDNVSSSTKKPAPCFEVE

[8] = biological target: Serine/threonine-protein phosphatase (Homo sapiens, UniProt Q9BPW0); experiment: inhibition of protein phosphatase 5 activity – biochemical, fluorescence, dose response (AID 2395)
[9] = biological target: Dual specificity tyrosine-phosphorylation-regulated kinase 1A (Rattus norvegicus, UniProt Q63470); assay type: biochemical, Homo sapiens
[10] = viability of PTEN-deleted HCT116 cells – cell-based, HCT116 PTEN knockout, dose response (AID 1047); assay type: functional;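 further: HCT116 colon tumor cells with PTEN knocked out; cells exposed to compound for 60 hours before readout; potency for loss of cell viability measured by luminescence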
[11] = biological target: Beta-galactosidase (Escherichia coli, UniProt Q8VNN2); experiment: detection-enzyme interference by beta-gal modulators – biochemical, E. coli enzyme, set 3, artefact control for CCR6 antagonist project, dose response (AID 504712); assay type: functional
Sequence of Beta-galactosidase (Q8VNN2 whole entry): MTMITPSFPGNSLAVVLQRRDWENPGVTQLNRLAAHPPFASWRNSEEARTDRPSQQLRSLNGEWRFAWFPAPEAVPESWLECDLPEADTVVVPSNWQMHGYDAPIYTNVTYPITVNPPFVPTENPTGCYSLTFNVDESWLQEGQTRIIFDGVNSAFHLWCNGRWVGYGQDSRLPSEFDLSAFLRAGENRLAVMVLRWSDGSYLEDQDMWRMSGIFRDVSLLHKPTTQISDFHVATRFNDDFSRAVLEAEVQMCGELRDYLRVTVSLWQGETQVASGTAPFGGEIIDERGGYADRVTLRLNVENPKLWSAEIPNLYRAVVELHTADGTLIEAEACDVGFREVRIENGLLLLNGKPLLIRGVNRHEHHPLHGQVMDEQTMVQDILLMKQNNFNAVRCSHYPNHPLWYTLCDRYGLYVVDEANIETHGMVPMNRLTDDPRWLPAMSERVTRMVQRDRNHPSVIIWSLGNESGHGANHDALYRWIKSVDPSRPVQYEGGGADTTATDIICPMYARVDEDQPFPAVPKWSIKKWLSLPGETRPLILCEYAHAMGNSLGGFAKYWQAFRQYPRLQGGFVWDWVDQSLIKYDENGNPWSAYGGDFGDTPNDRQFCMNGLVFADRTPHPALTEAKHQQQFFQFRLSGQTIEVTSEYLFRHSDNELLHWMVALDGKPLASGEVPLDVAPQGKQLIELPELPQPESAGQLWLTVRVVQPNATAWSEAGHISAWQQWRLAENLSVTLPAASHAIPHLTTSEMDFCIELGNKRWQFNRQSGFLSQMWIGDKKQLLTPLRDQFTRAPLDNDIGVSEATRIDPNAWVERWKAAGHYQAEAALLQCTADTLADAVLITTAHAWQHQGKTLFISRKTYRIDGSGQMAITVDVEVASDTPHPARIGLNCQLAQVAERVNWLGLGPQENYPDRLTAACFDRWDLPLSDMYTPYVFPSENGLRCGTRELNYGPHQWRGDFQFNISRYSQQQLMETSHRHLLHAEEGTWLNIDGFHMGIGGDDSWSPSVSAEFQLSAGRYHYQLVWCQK

Sequence of Sphingosine 1-phosphate receptor 4 (O95977 whole entry): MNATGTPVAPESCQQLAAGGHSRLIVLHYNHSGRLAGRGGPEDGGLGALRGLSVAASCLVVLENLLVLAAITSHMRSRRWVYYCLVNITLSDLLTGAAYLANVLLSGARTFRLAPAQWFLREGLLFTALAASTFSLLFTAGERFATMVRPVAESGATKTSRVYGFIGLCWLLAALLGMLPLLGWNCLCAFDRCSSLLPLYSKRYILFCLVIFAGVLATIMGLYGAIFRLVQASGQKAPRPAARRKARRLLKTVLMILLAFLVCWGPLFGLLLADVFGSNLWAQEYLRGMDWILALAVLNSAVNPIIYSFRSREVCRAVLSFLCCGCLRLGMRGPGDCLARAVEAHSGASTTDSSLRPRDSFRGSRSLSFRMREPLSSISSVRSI
Sequence of Serine/threonine-protein phosphatase (Q9BPW0 whole entry): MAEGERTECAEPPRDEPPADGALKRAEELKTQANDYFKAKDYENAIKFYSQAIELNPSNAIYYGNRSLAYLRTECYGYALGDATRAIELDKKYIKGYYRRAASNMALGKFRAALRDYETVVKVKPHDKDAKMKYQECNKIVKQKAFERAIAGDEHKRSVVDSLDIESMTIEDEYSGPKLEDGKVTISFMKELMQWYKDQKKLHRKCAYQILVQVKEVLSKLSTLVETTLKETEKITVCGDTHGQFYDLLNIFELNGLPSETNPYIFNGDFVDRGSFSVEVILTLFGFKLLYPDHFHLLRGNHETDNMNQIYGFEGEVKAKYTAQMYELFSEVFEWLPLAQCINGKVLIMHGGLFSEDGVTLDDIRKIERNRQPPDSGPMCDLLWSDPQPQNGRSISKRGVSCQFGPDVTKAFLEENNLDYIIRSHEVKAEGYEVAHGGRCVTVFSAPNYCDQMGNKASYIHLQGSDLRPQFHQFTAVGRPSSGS

Which results are given for `COC(=O)C[C@]1(C(=O)OC)CN(C#N)N(c2ccc(Cl)cc2)C12c1ccccc1-c1ccccc12`?
EC50 [1]: 2.7 µM (active); AC50 [2]: 1.88 µM (active); IC50 [3]: 0.341 µM (active)

With `O=C(Nc1ccc(C#Cc2ccccc2)cc1)C1CC1` as the molecule, how does the IC50 [4] read?
The IC50 was 19.7 µM (active).

What about the IC50 [5] of the same molecule?
The IC50 was > 99 µM (inactive).

What about the IC50 [6] of the same molecule?
Its IC50 is > 99 µM (inactive).

Which IC50 [7] does the source give for `CCCCn1c(NC(=O)c2ccco2)c(C(=O)OCC)c2nc3ccccc3nc21` here?
Its IC50 is 10.4 µM (active).

And the IC50 [8]?
The IC50 was 10.3 µM (not active).

For `Cc1ccccc1NC1=C/C(=N\S(=O)(=O)c2ccc(C(=O)O)cc2)c2ccccc2C1=O`, which AC50 [9] is on record?
The AC50 was 4.11 µM (active).

Which results are given for `Cc1ccc(NC2=C/C(=N/S(=O)(=O)c3cccs3)c3ccccc3C2=O)cc1`?
EC50 [10]: 3.56 µM (active); IC50 [11]: 50.8 µM (inactive)
